Patent publication US20110091473A1, “NOVEL ANTIBODY THERAPIES” (GENMAB A/S, priority 2007, published 2011)

Assays:
[1] = test system: CD20 on RAJI-CD20high cells; experiment: Flow cytometry binding of FITC-conjugated B9E9 to RAJI-CD20high cells; design: species or system human; conditions: Berberine chloride 24 hours; Fillipin III 30 minutes
Experimental: To deplete cholesterol from the cell membrane, methyl-beta-cyclodextrin (MβCD, Sigma, Zwijndrecht, The Netherlands) was added in varying concentrations to Daudi cells and RAJI-CD20high cells and incubated for 30 minutes at 37° C. under gentle shaking conditions. After incubation the cells were washed twice in PBS and resuspended in test medium to a concentration of 2×10^6 viable cells/ml. MβCD-treated Daudi cells (1×10^5) were incubated with a saturating concentration of FITC-conjugated human anti-CD20 mAb 2F2 or the anti-CD20 mAb B9E9 (Beckman Coulter Inc., Fullerton, Calif.) for 30 minutes at 4° C. After washing twice with FACS buffer (PBS, 0.1% Bovine Serum Albumine, 0.02% Sodium Azide), cells were analyzed on a FACS Calibur (Becton Dickinson, Breda, The Netherlands). […] Binding is expressed as mean fluorescence intensity. […]
To determine the effect of adding cholesterol on CD20 mAb binding, all cell lines (1×10^5) were incubated with a saturating concentration of B9E9 for 30 minutes at 4° C. After washing twice with FACS buffer (PBS, 0.1% Bovine Serum Albumine, 0.02% Sodium Azide), the cells were analyzed on a FACS Calibur (Becton Dickinson, Breda, The Netherlands).
Cholesterol was depleted from the cell membrane of various B cells using varying concentrations of lovastatin (as described in Example 3) and CD20 mAb binding was determined. […]

RAJI-CD20high cells = experiment: Rituximab-mediated CDC of RAJI-CD20high cells, MTT assay; type: cell-based, human; conditions: for rituximab-mediated CDC after pre-incubation: Berberine chloride 24 hours or Fillipin III 30 minutes, 10 μg/ml rituximab, 10% serum
Description: Statins are competitive inhibitors of 3-hydroxy-3-methylglutaryl-coenzyme A reductase (HMG-CoAR). HMG-CoAR is a rate-limiting enzyme of the mevalonate pathway essential for the synthesis of isoprenoid compounds including cholesterol (McTaggart S J (2006) Isoprenylated proteins. Cell Mol Life Sci 63:255-267). By inhibiting HMG-CoAR, statins can lower the cholesterol blood level and extract cholesterol from the cell membrane. To determine the effect of statin-mediated cholesterol depletion on immunotherapy RAJI-CD20high cells were cultured with a concentration range of lovastatin or diluent for 48 hours.
Cell viability was measured in a MTT assay in which 3-(4,5-dimethylthiazol-2-yl)-2,5-diphenyltetrazolium bromide (MTT) solution (5 mg/ml, Roche, Diagnostics, Almere, The Netherlands) was added to each well (flat-bottom microtiter plates; Nunc, Rochester, N.Y.). The reaction was stopped after 4 hours of incubation at 37° C. by the addition of 100 μl of 20% SDS (Roche Diagnostics, Almere, The Netherlands). After overnight incubation at 37° C. the absorbance of the samples was measured at 550-525 nm using an Elisa reader (EL808x, Biotek instruments, Highland park, Vt., USA). Cytotoxicity was expressed as a relative viability of the rituximab-mediated CDC of lovastatin-treated cells compared to cells incubated with medium only and was calculated as follows: relative viability=[(Ae−Ab)/(Ac−Ab)]*100, where Ab is the background absorbance, Ae is experimental absorbance of the lysed cells and Ac is the absorbance of untreated cells. The viability was expressed as percentage survival in comparison to non-cholesterol depleted cells (control).
RAJI-CD20high cells were incubated with diluents (control) or a concentration range of either Fillipin III for 30 minutes or Berberine chloride for 24 hours. […] The cytotoxic effects were measured in a MTT assay. […] After overnight incubation at 37° C. the absorbance of the samples was measured at 550-525 nm using an Elisa reader (EL808x, Biotek instruments, Highland park, Vt., USA). […]

[2] = test system: CD20 in the plasma membrane; experiment: CD20 localization in RAJI-CD20high cells (immunofluorescence, surface biotinylation); type: cell-based, human
Experimental: To examine localization of CD20 in RAJI-CD20high cells a double immunofluorescence staining with anti-CD20 mAb directed against an extracellular conformational epitope of CD20, and, after cell permeabilization, with a mAb against a linear epitope in the cytosolic tail of this molecule was performed. Control and lovastatin-pretreated RAJI-CD20high cells were stained in suspension at a density of 5×10^5/ml with FITC-conjugated B9E9 (1:10 in PBS, Immunotech Coulter Company, France) for 30 minutes at room temperature. After washing in PBS (three times), 200 μl of the cell suspension was spun onto a Cytospin slide. The slides were air-dried, acetone-fixed for 15 minutes at room temperature, washed three times with PBS, incubated with anti-CD20 mAb (Novocastra) (1:100 in PBS with 5% normal donkey serum (Jackson)) for 60 minutes at room temperature. The slides were washed three times in PBS and incubated with donkey anti-mouse Alexa555 conjugated antibody (Molecular Probes, CA) (1:200 for 30 minutes at room temperature). The slides were washed, mounted in Vectashield (Vector Laboratories, CA.) and examined by fluorescence microscopy (Leica TCS SP2). […] After five washes, gel-bound complexes were boiled in 2× Laemmli sample buffer and analyzed for CD20 by Western blotting using anti-CD20 mAb (NCL-CD20-L26, Novocastra) as described in Example 8.

CD20 mRNA = CD20 mRNA level by RT-PCR in RAJI-CD20high cells; type: cell-based, human; conditions: 10 μM, time course over 48 hours
Experimental: To analyze whether lovastatin treatment would influence CD20 expression mRNA expression of the target was determined. RAJI-CD20high cells were incubated with either diluent (control) or 10 μM of lovastatin for different time periods (1-48 hours). Cells were washed twice with PBS, pelleted and treated with 1 ml of TRIzol Reagent (Invitrogen) to extract total RNA according to the manufacturer's protocol. RNA concentration was measured with Eppendorf Biophotometer (Eppendorf, Hamburg, Germany). The first strand cDNA synthesis containing 1 μg of total RNA was primed with oligo(dT) using Omniscript RT Kit (Qiagen, Chatsworth, Calif.). Primers used for CD20 PCR amplification were: forward-5′ […]3′ and reverse-5′ […]3′. The cycling conditions in the Mastercycler personal (Eppendorf) consisted of a first step of 94° C. denaturation for 10 minutes, followed by 35 cycles of annealing at 54° C. for 60 sec, extension at 75° C. for 90 sec, and denaturation at 94° C. for 30 sec, with a final elongation step at 75° C. for 10 minutes using HotStart Taq DNA Polymerase (Qiagen). Amplification products were analyzed by 1.5% agarose gel electrophoresis.

CD20 protein = experiment: Total cellular CD20 protein level by Western blotting in RAJI-CD20high cells; type: cell-based, human; conditions: 5-30 μM, 48 hours
Experimental: Control cells or cells incubated with 10 μM lovastatin for 48 hours, washed twice with PBS, were pelleted and lysed with radioimmunoprecipitation assay (RIPA) buffer containing Tris base 50 mM, NaCl 150 mM, NP-40 1%, sodium deoxycholate 0.25% and EDTA 1 mM supplemented with Complete® protease inhibitor cocktail tablets (Roche Diagnostics, Mannheim, Germany). Protein concentration was measured using Bio-Rad Protein Assay (BioRad, Hercules, Calif., USA). Equal amounts of whole cell proteins were separated on 12.5% SDS-polyacrylamide gel, transferred onto Protran® nitrocellulose membranes (Schleicher and Schuell BioScience Inc., Keene, N.H.), blocked with TBST (Tris buffered saline (pH 7.4) and 0.05% Tween 20) supplemented with 5% nonfat milk and 5% FBS. The following mAb (at 1:1000 dilution) were used for the overnight incubation: anti-CD20 (NCL-CD20-L26, Novocastra Laboratories Ltd, UK), anti-ICAM-1 (Santa Cruz, Santa Cruz, Calif.). After extensive washing with TBST, the membranes were incubated for 45 minutes with peroxidase conjugated ImmunoPure Goat Anti-Mouse IgG [F(ab′)2] (Jackson ImmunoResearch Laboratories Inc, Pa.). The chemiluminescence reaction for horseradish peroxidase was developed using SuperSignal WestPico Trail Kit® (Pierce, Rockford, Ill.) on a standard x-ray film. […]

[3] = test system: cell surface proteins on RAJI cells; experiment: FACS binding of mAbs to cell surface proteins on RAJI cells; type: cell-based, human
Experimental: B cells (either non-treated cells, cholesterol-depleted cells via MβCD or lovastatin, or cholesterol-reconstituted cells) were characterized for quantitative surface expression of the B cell markers CD19, CD20, and CD21, the T-cell marker CD3, complement regulatory proteins CD55 and CD59, and HLA-DR and CD81 by direct immunofluorescence. […] After washing twice with FACS buffer (PBS, 0.1% Bovine Serum Albumine, 0.02% Sodium Azide), the cells were analyzed on a flow cytometer.

human CD20 [4] = target: T1, human CD20 (human, UniProt P11836 1-297); experiment: flow cytometry, FITC-conjugated antibody on freshly isolated B cells of five patients after 80 mg atorvastatin
T1 sequence (looked up): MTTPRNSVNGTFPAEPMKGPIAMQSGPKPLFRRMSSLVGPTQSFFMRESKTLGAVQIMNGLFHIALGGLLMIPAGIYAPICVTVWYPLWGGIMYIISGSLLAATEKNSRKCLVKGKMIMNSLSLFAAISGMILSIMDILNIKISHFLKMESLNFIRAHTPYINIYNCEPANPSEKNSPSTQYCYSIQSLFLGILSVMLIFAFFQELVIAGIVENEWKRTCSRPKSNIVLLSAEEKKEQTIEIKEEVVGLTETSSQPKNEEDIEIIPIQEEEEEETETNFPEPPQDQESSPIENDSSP
Description: Informed consent was provided according to the Declaration of Helsinki.

human CD20 [5] = target: T1, human CD20; experiment: cell-based or functional assay
[6] = increasing concentrations of MβCD

Fillipin III
binding of B9E9 to cells treated with cholesterol-modulating drug [1]: not observed
rituximab-mediated CDC after pre-incubation (RAJI-CD20high cells): remained sensitive

COc1ccc2cc3[n+](cc2c1OC)CCc1cc2c(cc1-3)OCO2 [Berberine chloride]
binding of B9E9 to cells treated with cholesterol-modulating drug [1]: impaired binding
rituximab-mediated CDC after pre-incubation (RAJI-CD20high cells): significantly abrogated

CC[C@H](C)C(=O)O[C@H]1C[C@@H](C)C=C2C=C[C@H](C)[C@H](CC[C@@H]3C[C@@H](O)CC(=O)O3)[C@H]21 [lovastatin]
binding of mAb directed to the extracellular epitope of CD20 ([2]; 48-hour pre-treatment, confocal immunofluorescence): nearly completely abrogated binding
CD20 detectable among biotinylated surface proteins ([2]; treated cells compared with controls): comparable amounts
mRNA level for CD20 (CD20 mRNA): remained constant
protection from rituximab-induced CDC (cell viability) (RAJI-CD20high cells; lovastatin concentration range 48 hours, 10% complement active serum): concentration-dependent protection
total cellular CD20 protein level (CD20 protein): did not influence
decrease of mAb binding of CD21 ([3]; 10 μM lovastatin): not
mAb binding of CD19 and CD20 ([3]; 10 μM lovastatin): clearly decreased

CD20 mAb B1 (GlaxoSmithKline) (antibody)
average decrease of the CD20/CD21 MFI ratio, day 3 against day 0 (so in the source) (human CD20 [4]): 96%

methyl-beta-cyclodextrin [MβCD]
binding of mAbs against CD19, CD20, CD55, CD59, HLA-DR and CD81 [3, 6]: negatively correlated
mAb binding to CD21 [3, 6]: not affected

B1: CD20 mAb 11B8 (antibody, V domains shown)
VH: EVQLVQSGGGLVHPGGSLRLSCTGSGFTFSYHAMHWVRQAPGKGLEWVSIIGTGGVTYYADSVKGRFTISRDNVKNSLYLQMNSLRAEDMAVYYCARDYYGAGSFYDGLYGMDVWGQGTTVTVSS
VL: EIVLTQSPATLSLSPGERATLSCRASQSVSSYLAWYQQKPGQAPRLLIYDASNRATGIPARFSGSGSGTDFTLTISSLEPEDFAVYYCQQRSDWPLTFGGGTKVEIK
average decrease of the CD20/CD21 MFI ratio, day 3 against day 0 (so in the source) (human CD20 [4]): 84%

B2: rituximab (antibody, V domains shown)
VH: QVQLQQPGAELVKPGASVKMSCKASGYTFTSYNMHWVKQTPGRGLEWIGAIYPGNGDTSYNQKFKGKATLTADKSSSTAYMQLSSLTSEDSAVYYCARSTYYGGDWYFNVWGAGTTVTVSA
VL: QIVLSQSPAILSASPGEKVTMTCRASSSVSYIHWFQQKPGSSPKPWIYATSNLASGVPVRFSGSGSGTSYSLTISRVEAEDAATYYCQQWTSNPPTFGGGTKLEIK
EC50 of rituximab-mediated ADCC, 51Cr release, lovastatin-treated RAJI cells, PBMC effector cells (human CD20 [5]): 0.082 µg/mL
EC50 of rituximab-mediated ADCC, 51Cr release, non-treated RAJI cells, PBMC effector cells (human CD20 [5]): 0.024 µg/mL
